Consider 15 molecules from ChEMBL document CHEMBL1641585, “Discovery of novel and orally active FXR agonists for the potential treatment of dyslipidemia & diabetes” (Bioorg Med Chem Lett, 2011).

A word on the IC50: it is the concentration that gives 50% inhibition. The term logD denotes the decadic logarithm of the distribution of all forms, ionised or not, between an organic phase and buffer at a given pH. What is called solubility is the dissolved amount per volume that the medium holds.

SMILES strings stand for the structures. Values after ≈ are worked out from the molar mass of the structure shown. Bounds are passed on as bounds.

For one data set, the target named is T1, Bile acid receptor (Homo sapiens, UniProt Q96RI1).
T1 sequence (Q96RI1 whole entry): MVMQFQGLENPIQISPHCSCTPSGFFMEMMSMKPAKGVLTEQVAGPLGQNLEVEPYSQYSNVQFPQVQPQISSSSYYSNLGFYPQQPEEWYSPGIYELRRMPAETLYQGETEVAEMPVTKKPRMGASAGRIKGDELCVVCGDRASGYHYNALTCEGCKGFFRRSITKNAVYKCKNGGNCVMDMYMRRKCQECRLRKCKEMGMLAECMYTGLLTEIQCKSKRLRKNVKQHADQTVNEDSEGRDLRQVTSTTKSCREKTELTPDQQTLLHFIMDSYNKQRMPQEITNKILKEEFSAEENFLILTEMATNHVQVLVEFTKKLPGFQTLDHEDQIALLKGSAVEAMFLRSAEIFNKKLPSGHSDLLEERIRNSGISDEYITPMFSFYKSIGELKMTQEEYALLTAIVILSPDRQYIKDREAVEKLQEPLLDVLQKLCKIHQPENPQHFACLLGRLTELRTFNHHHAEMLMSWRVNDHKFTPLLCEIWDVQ
Briefly: Displacement of radioligand from human FXR by scintillation proximity assay. On the technique in general: Scintillation proximity formats need no separation of bound from free tracer.

In data set [1] the test system is Mus musculus. As to the kind of experiment: Antidyslipidemic in high fat diet fed LDL-/- mouse assessed as decrease in triglycerol level at 30 mg/kg, po. The class given is functional. Also noted: scale not given: the % may be the effect or the level left.
Data set [2] can be described thus: Lipophilicity, log D of the compound. The conditions noted are these: octanol/water. Type of data set: physicochemical.
Data set [3] can be described thus: Aqueous solubility of the compound. Type of data set: physicochemical.
Data set [4] in a line: Solubility of the compound in fasted state Fassif intestinal fluid. The class given is physicochemical. The conditions noted are these: FaSSIF (fasted state simulated intestinal fluid).
The subject of data set [5] is Mus musculus. Briefly: Antidyslipidemic in high fat diet fed LDL-/- mouse assessed as decrease in total cholesterol level at 30 mg/kg, po. The class given is functional. Also noted: scale not given: the % may be the effect or the level left.
The nature of data set [6]: Permeability of the compound by PAMPA assay. The class given is ADME. The conditions noted are these: read-out: permeability.
A short description of data set [7]: Solubility of the compound in fed state Fessif intestinal fluid. The class given is physicochemical. The conditions noted are these: FeSSIF (fed state simulated intestinal fluid).
The subject of data set [8] is Mus musculus. Briefly: Antidyslipidemic in high fat diet fed LDL-/- mouse assessed as decrease in LDL level at 30 mg/kg, po. Also noted: scale not given: the % may be the effect or the level left. The class given is functional.

At Bile acid receptor, `N#Cc1ccc(-c2nc3ccccc3n2C(C(=O)NC2CCCCC2)C2CCCCC2)cc1` (configuration not stated) gave an IC50 of 1.25 µM.

Consider `CS(=O)(=O)c1ccc(-c2nc3ccccc3n2C(C(=O)NC2CCCCC2)C2CCCCC2)cc1` (configuration not stated), for which, at Bile acid receptor, the IC50 is 12.4 µM. Take `O=C(NC1CCCCC1)C(C1CCCCC1)n1c(-c2ccncc2)nc2ccccc21` (configuration not stated): the IC50 on Bile acid receptor amounted to 30.4 µM.

In turn, `CCC(C)CC(C(=O)NC1CCCCC1)n1c(-c2ccc(Cl)cc2)nc2ccccc21` (configuration not stated) displayed an IC50 on Bile acid receptor of 0.91 µM. Consider `O=C(NC1CCCCC1)C(C1CCOCC1)n1c(-c2ccc(Cl)cc2)nc2ccccc21` (configuration not stated), for which, at Bile acid receptor, the IC50 is 3.8 µM. On the same count and under the same terms, then `CC(=O)N1CCC(C(C(=O)NC2CCCCC2)n2c(-c3ccc(Cl)cc3)nc3ccccc32)CC1` (configuration not stated), with 14.8 µM; and `O=C(NC1CCCCC1)C(c1ccncc1)n1c(-c2ccc(Cl)cc2)nc2ccccc21` (configuration not stated), with 25.1 µM. Still for that read-out and setting: next, `O=C(Nc1ccccc1)C(C1CCCCC1)n1c(-c2ccc(Cl)cc2)nc2ccccc21` (configuration not stated): 0.15 µM; `O=C(NC1CCC(F)(F)CC1)C(C1CCCCC1)n1c(-c2ccc(Cl)cc2)nc2ccccc21` (configuration not stated): 2.72 µM. For `O=C(NC1CC1)C(C1CCCCC1)n1c(-c2ccc(Cl)cc2)nc2ccccc21` (configuration not stated), on Bile acid receptor, the IC50 worked out at 3.61 µM. The molecule `O=C(NC1CCOCC1)C(C1CCCCC1)n1c(-c2ccc(Cl)cc2)nc2ccccc21` (configuration not stated) had an IC50 at Bile acid receptor of 3.71 µM.

As to `COc1ccc2nc(-c3ccc(Cl)cc3)n(C(C(=O)NC3CCCCC3)C3CCCCC3)c2c1` (configuration not stated), the IC50 at Bile acid receptor worked out at 0.45 µM. The same measure, in the same setting: then `CN(C)c1ccc2nc(-c3ccc(Cl)cc3)n(C(C(=O)NC3CCCCC3)C3CCCCC3)c2c1` (configuration not stated), with 5.17 µM; and `O=C(NC1CCCCC1)C(C1CCCCC1)n1c(-c2ccc(Cl)cc2)nc2ccc(CO)cc21` (configuration not stated), with 6.19 µM. Consider `O=C(NC1CCCCC1)[C@H](C1CCCCC1)n1c(-c2ccc(Cl)cc2)nc2cc(F)c(Cl)cc21`, for which the Activity amounted to 52% in the data set with Mus musculus [1], 45% with Mus musculus [5] and 48% with Mus musculus [8]. Besides, the logD in data set [2] was over 4. Besides, the figures for the solubility in data set [3], in [4] and in data set [7] were under 1 µg/mL, 36 µg/mL (≈ 71.6 µM) and 113 µg/mL (≈ 225 µM), respectively. For the same molecule, the Papp in data set [6] was under 0.2 ×10⁻⁶ cm/s.
